Assay results: ChEMBL document CHEMBL5291721, “A preclinical secondary pharmacology resource illuminates target-adverse drug reaction associations of marketed drugs” (Nat Commun, 2023)

Assays:
[1] = target: T1, Alpha-2C adrenergic receptor (Homo sapiens, UniProt P18825); format: functional
T1 sequence (P18825 whole entry): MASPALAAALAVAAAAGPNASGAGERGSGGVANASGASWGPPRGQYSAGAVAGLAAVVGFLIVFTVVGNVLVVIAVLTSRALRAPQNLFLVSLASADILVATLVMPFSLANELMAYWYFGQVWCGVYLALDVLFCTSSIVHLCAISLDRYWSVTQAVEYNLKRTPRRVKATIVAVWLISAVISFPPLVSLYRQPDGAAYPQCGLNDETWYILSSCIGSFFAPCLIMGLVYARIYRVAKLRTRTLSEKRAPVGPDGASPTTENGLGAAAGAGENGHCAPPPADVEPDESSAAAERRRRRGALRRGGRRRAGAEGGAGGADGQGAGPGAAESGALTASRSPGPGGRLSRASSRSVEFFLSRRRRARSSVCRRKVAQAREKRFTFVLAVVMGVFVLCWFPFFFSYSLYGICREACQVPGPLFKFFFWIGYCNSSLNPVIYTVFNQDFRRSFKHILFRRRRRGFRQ

[2] = target: T2, Muscarinic acetylcholine receptor M2 (Homo sapiens, UniProt P08172); format: functional, cell-based
T2 sequence (P08172 whole entry): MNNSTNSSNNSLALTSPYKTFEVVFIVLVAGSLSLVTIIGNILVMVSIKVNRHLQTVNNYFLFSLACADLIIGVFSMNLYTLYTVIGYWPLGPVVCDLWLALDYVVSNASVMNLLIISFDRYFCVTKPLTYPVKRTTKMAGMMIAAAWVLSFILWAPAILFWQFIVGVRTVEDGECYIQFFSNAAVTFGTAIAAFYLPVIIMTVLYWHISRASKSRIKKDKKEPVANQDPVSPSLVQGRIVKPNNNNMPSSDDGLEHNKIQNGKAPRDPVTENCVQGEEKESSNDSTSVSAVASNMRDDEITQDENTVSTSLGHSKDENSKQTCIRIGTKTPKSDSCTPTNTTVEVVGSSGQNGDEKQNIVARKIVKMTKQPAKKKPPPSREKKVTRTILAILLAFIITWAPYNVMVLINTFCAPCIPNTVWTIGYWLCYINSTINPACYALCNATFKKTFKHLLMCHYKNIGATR

[3] = target: D(1A) dopamine receptor (Homo sapiens, UniProt P21728); format: functional, cell-based
[4] = target: Gamma-aminobutyric acid receptor subunit alpha-1 (Rattus norvegicus, UniProt P62813)
[5] = target: T3, 5-hydroxytryptamine receptor 1A (Homo sapiens, UniProt P08908); format: functional, cell-based
T3 sequence (P08908 whole entry): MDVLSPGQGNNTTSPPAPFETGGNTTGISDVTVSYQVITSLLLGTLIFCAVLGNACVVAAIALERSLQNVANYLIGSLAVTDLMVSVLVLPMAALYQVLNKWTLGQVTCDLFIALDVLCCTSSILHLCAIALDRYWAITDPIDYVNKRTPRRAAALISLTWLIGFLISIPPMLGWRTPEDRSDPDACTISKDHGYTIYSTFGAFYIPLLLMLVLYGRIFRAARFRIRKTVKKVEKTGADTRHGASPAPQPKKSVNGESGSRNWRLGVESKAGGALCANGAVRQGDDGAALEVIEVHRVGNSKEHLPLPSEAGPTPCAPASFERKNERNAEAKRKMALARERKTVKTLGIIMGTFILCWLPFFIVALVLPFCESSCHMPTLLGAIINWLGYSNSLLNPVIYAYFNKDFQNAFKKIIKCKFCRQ

[6] = target: 5-hydroxytryptamine receptor 2A (Homo sapiens, UniProt P28223); format: functional, cell-based
[7] = target: T4, 5-hydroxytryptamine receptor 3A (Homo sapiens, UniProt P46098); format: functional
T4 sequence (P46098 whole entry): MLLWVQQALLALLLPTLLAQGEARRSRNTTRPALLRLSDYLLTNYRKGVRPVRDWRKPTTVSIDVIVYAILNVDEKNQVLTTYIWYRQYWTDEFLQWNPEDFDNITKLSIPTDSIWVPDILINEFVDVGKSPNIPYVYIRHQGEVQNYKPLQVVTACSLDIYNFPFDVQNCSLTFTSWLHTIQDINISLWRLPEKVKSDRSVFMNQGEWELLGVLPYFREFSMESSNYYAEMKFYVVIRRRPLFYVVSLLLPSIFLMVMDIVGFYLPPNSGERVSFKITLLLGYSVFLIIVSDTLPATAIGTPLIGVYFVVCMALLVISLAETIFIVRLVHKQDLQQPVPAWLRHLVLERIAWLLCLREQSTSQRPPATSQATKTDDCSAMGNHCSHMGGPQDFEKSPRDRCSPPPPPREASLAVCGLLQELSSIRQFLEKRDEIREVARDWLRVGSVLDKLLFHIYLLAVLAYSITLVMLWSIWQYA

[8] = target: T5, Glucocorticoid receptor (Homo sapiens, UniProt P04150)
T5 sequence (P04150 whole entry): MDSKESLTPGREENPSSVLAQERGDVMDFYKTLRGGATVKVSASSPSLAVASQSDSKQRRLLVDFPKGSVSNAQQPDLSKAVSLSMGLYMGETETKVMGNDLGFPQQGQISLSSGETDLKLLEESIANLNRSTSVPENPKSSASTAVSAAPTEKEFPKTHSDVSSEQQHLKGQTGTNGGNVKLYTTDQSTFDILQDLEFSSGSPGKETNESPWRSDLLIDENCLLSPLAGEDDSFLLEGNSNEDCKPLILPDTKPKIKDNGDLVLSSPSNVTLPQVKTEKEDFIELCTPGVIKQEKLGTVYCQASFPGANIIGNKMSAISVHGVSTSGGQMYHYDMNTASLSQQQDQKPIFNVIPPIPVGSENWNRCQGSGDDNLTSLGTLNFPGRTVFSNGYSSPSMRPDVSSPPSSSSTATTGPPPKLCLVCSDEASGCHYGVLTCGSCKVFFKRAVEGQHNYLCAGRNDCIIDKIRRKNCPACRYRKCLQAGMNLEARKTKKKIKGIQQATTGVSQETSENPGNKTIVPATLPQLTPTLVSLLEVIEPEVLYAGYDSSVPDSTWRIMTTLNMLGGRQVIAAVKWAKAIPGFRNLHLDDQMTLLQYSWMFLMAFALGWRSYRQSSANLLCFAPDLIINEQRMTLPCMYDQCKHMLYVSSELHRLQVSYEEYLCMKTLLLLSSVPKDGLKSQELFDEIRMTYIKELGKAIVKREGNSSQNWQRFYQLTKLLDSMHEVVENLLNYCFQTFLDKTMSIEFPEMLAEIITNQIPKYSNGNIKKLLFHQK

[9] = target: Delta-type opioid receptor (Homo sapiens, UniProt P41143)
[10] = target: Histamine H3 receptor (Homo sapiens, UniProt Q9Y5N1)
Note: assay procedure not described here.

Chain of D(1A) dopamine receptor (P21728 whole entry): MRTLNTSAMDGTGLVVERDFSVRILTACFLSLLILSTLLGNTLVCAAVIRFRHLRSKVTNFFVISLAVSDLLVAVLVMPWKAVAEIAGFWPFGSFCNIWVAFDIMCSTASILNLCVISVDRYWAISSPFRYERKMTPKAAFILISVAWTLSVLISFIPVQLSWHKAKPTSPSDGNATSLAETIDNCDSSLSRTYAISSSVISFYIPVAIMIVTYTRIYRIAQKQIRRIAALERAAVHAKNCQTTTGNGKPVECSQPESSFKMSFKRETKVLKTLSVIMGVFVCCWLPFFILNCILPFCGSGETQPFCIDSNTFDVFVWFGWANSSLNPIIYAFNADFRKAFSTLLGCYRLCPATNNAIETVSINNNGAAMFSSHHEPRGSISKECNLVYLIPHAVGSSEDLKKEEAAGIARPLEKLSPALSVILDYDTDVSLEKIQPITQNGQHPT
Chain of 5-hydroxytryptamine receptor 2A (P28223 whole entry): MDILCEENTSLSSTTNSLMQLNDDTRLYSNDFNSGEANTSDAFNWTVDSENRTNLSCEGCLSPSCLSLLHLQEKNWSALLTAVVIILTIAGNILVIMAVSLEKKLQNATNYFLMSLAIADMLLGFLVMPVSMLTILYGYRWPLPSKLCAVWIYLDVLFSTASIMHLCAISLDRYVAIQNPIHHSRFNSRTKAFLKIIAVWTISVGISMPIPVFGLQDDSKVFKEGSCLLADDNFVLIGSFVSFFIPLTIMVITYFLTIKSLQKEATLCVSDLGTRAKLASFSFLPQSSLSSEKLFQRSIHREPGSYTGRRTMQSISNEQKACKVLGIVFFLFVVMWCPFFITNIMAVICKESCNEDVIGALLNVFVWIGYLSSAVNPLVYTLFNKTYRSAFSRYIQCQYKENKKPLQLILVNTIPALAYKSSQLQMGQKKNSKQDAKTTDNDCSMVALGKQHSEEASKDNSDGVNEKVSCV
Chain of Delta-type opioid receptor (P41143 whole entry): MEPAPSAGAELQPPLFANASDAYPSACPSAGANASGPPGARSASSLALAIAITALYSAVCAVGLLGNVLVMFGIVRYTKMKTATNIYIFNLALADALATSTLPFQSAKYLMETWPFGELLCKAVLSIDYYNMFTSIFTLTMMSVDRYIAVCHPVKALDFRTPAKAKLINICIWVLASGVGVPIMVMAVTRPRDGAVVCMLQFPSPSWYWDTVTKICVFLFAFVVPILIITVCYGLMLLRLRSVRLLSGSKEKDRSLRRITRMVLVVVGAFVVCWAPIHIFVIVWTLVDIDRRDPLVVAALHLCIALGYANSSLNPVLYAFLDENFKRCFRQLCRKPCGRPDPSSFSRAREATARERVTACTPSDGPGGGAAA
Chain of Histamine H3 receptor (Q9Y5N1 whole entry): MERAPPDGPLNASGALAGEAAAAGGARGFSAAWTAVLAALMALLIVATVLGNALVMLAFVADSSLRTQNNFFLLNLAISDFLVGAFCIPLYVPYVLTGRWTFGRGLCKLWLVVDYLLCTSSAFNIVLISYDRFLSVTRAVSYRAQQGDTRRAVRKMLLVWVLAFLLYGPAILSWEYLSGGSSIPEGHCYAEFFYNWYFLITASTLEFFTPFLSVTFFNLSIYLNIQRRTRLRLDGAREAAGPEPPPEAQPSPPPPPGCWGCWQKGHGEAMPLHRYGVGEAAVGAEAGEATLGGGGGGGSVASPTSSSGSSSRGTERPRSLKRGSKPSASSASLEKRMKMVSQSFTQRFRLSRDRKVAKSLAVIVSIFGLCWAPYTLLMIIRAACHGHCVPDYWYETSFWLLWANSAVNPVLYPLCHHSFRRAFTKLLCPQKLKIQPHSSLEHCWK
Chain of Gamma-aminobutyric acid receptor subunit alpha-1 (P62813 whole entry): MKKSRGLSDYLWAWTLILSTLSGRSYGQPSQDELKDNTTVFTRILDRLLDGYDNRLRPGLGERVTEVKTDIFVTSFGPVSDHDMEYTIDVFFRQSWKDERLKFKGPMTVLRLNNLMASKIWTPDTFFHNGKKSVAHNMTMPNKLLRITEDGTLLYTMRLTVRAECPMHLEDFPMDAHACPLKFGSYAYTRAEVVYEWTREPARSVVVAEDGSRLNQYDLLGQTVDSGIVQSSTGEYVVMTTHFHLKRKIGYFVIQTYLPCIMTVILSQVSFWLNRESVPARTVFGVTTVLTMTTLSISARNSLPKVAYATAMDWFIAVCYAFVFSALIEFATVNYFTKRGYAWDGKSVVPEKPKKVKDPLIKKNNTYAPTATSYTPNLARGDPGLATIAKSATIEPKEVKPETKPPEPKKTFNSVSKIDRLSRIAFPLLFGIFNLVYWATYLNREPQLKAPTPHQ

SMILES: CC(CCc1ccccc1)NC(C)C(O)c1ccc(O)cc1 (stereo not given) [NYLIDRIN]
- AC50 [1]: 0.64 µM
- AC50 [2]: > 10 µM
- AC50 [3]: > 10 µM
- AC50 [4]: > 10 µM
- AC50 [5]: 12 µM
- AC50 [6]: > 30 µM
- AC50 [7]: > 10 µM
- AC50 [8]: > 30 µM
- AC50 [9]: > 10 µM
- AC50 [10]: > 10 µM

SMILES: CC1(C)C(C=C(Cl)Cl)C1C(=O)OCc1cccc(Oc2ccccc2)c1 (stereo not given) [PERMETHRIN]
- AC50 [1]: > 10 µM
- AC50 [2]: > 10 µM
- AC50 [3]: > 10 µM
- AC50 [4]: > 10 µM
- AC50 [5]: > 10 µM
- AC50 [6]: > 10 µM
- AC50 [7]: > 30 µM
- AC50 [8]: > 30 µM
- AC50 [9]: > 30 µM
- AC50 [10]: > 10 µM

SMILES: CC[N+]1(C)CCCC(OC(=O)C(O)(c2ccccc2)c2ccccc2)C1 (stereo not given) [PIPENZOLATE]
- AC50 [1]: > 30 µM
- AC50 [2]: 0.023 µM
- AC50 [3]: > 30 µM
- AC50 [4]: > 30 µM
- AC50 [5]: > 30 µM
- AC50 [6]: > 30 µM
- AC50 [7]: > 30 µM
- AC50 [8]: > 30 µM
- AC50 [9]: > 30 µM
- AC50 [10]: > 30 µM

SMILES: CC(=O)c1ccc2c(c1)N(CCCN1CCC(CCO)CC1)c1ccccc1S2 [PIPERACETAZINE]
- AC50 [1]: 0.37 µM
- AC50 [2]: 24 µM
- AC50 [3]: > 30 µM
- AC50 [4]: > 30 µM
- AC50 [5]: 0.043 µM
- AC50 [6]: > 30 µM
- AC50 [7]: > 30 µM
- AC50 [8]: > 30 µM
- AC50 [9]: > 30 µM
- AC50 [10]: > 30 µM

SMILES: NC(=O)CCC/N=C(\c1ccc(Cl)cc1)c1cc(F)ccc1O [PROGABIDE]
- AC50 [1]: > 10 µM
- AC50 [2]: > 10 µM
- AC50 [3]: > 10 µM
- AC50 [4]: > 10 µM
- AC50 [5]: > 10 µM
- AC50 [6]: > 10 µM
- AC50 [7]: > 30 µM
- AC50 [8]: > 10 µM
- AC50 [9]: > 30 µM
- AC50 [10]: > 10 µM

SMILES: CC(NCCc1ccc(O)cc1)C(O)c1ccc(O)cc1 (stereo not given) [RITODRINE]
- AC50 [1]: > 30 µM
- AC50 [2]: > 10 µM
- AC50 [3]: > 10 µM
- AC50 [4]: > 30 µM
- AC50 [5]: > 10 µM
- AC50 [6]: > 30 µM
- AC50 [7]: > 30 µM
- AC50 [8]: > 30 µM
- AC50 [9]: > 30 µM
- AC50 [10]: > 30 µM

SMILES: CN1c2ccccc2C(NCCCCCCC(=O)O)c2ccc(Cl)cc2S1(=O)=O (stereo not given) [TIANEPTINE]
- AC50 [1]: > 30 µM
- AC50 [2]: > 30 µM
- AC50 [3]: > 30 µM
- AC50 [4]: > 30 µM
- AC50 [5]: > 30 µM
- AC50 [6]: > 30 µM
- AC50 [7]: > 30 µM
- AC50 [8]: > 30 µM
- AC50 [9]: 28 µM
- AC50 [10]: > 30 µM
